# Assay results taken from patent publication US20250368634A1, “PHENYL AMIDE COMPOUNDS AND METHODS OF USE” (SCHRÖDINGER, INC., priority 2022, published 2025).
# Target: SOS1-KRas (G12C) (Homo sapiens (Human), UniProt Q07889)
# Assay: SOS1-KRas (G12C) FRET Assay
# Type: binding
# Conditions: inhibition of SOS1:KRAS interaction; 0.5 nM His10-SOS1 (res. 564-1049), 2.5 nM GST-KRAS (res. 1-169, G12C); 2 hrs at RT
# SOS1-KRas (G12C), sequence (Q07889 564-1049, stated change not applied): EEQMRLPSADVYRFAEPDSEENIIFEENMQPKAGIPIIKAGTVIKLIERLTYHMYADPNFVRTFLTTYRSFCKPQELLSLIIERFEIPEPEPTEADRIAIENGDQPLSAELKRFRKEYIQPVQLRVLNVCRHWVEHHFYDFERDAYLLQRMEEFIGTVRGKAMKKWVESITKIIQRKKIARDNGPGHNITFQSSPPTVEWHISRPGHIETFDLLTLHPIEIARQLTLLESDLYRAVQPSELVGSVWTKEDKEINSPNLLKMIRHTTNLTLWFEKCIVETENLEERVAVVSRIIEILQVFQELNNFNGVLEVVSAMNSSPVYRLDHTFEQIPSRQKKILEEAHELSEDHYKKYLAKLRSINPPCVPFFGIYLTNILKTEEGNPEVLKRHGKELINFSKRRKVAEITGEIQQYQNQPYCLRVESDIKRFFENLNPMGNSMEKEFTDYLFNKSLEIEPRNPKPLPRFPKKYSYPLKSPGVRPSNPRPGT
row,SMILES,IC50
1,"C[C@@H](NC(=O)c1cc(C23CC(C2)C3)c(F)cc1N[C@H]1CN2CCC1CC2)c1cccc(C(F)F)c1F [Example 69, 5-(bicyclo[1.1.1]pentan-1-yl)-N—((R)-1-(3-(difluoromethyl)-2-fluorophenyl)ethyl)-4-fluoro-2-(((R)-quinuclidin-3-yl)amino)benzamide]",0.12 µM
2,"C[C@@H](NC(=O)c1cc(C23CC(C2)C3)c(F)cc1N[C@@H]1CN2CCC1CC2)c1cccc(C(F)F)c1F [Example 70, 5-(bicyclo[1.1.1]pentan-1-yl)-N—((R)-1-(3-(difluoromethyl)-2-fluorophenyl)ethyl)-4-fluoro-2-(((S)-quinuclidin-3-yl)amino)benzamide]",0.347 µM
3,"COC(=O)c1cc(C(=O)N[C@H](C)c2cccc(C(F)F)c2F)c(NC2CCN(C)CC2)cc1F [Example 71, methyl (R)-5-((1-(3-(difluoromethyl)-2-fluorophenyl)ethyl)carbamoyl)-2-fluoro-4-((1-methylpiperidin-4-yl)amino)benzoate]",0.0936 µM
4,"C[C@@H](NC(=O)c1cc(-c2nnco2)c(F)cc1NC1CCN(C)CC1)c1cccc(C(F)F)c1F [Example 72, (R)—N-(1-(3-(difluoromethyl)-2-fluorophenyl)ethyl)-4-fluoro-2-((1-methylpiperidin-4-yl)amino)-5-(1,3,4-oxadiazol-2-yl)benzamide]",0.0114 µM
5,"CNC(=O)c1cc(C(=O)N[C@H](C)c2cccc(C(F)F)c2F)c(NC2CCN(C)CC2)cc1F [Example 73, (R)—N1-(1-(3-(difluoromethyl)-2-fluorophenyl)ethyl)-4-fluoro-N3-methyl-6-((1-methylpiperidin-4-yl)amino)isophthalamide]",0.148 µM
6,"C[C@@H](NC(=O)c1cc(C(=O)N2CCC(F)(F)CC2)c(F)cc1NC1CCN(C)CC1)c1cccc(C(F)F)c1F [Example 74, (R)—N-(1-(3-(difluoromethyl)-2-fluorophenyl)ethyl)-5-(4,4-difluoropiperidine-1-carbonyl)-4-fluoro-2-((1-methylpiperidin-4-yl)amino)benzamide]",0.888 µM
7,"C[C@@H](NC(=O)c1cc(N2CCOCC2)c(Cl)cc1N[C@H]1CN2CCC1CC2)c1cccc(C(F)F)c1F [Example 80, 4-chloro-N—((R)-1-(3-(difluoromethyl)-2-fluorophenyl)ethyl)-5-morpholino-2-(((R)-quinuclidin-3-yl)amino)benzamide]",0.0443 µM
8,"C[C@@H](NC(=O)c1cc(N2CCOCC2)c(Cl)cc1N[C@@H]1CN2CCC1CC2)c1cccc(C(F)F)c1F [Example 81, 4-chloro-N—((R)-1-(3-(difluoromethyl)-2-fluorophenyl)ethyl)-5-morpholino-2-(((S)-quinuclidin-3-yl)amino)benzamide]",0.0126 µM

# Now from value to molecule:
row,IC50,SMILES
1,0.244 µM,"C[C@@H](NC(=O)c1cc(C(=O)N(C)C)c(F)cc1NC1CCN(C)CC1)c1cccc(C(F)F)c1F [Example 75, (R)—N1-(1-(3-(difluoromethyl)-2-fluorophenyl)ethyl)-4-fluoro-N3,N3-dimethyl-6-((1-methylpiperidin-4-yl)amino)isophthalamide]"
2,0.874 µM,"CC(C)NC(=O)c1cc(C(=O)N[C@H](C)c2cccc(C(F)F)c2F)c(NC2CCN(C)CC2)cc1F [Example 76, (R)—N1-(1-(3-(difluoromethyl)-2-fluorophenyl)ethyl)-4-fluoro-N3-isopropyl-6-((1-methylpiperidin-4-yl)amino)isophthalamide]"
3,0.24 µM,"C[C@@H](NC(=O)c1cc(C(=O)N2CCOCC2)c(F)cc1NC1CCN(C)CC1)c1cccc(C(F)F)c1F [Example 77, (R)—N-(1-(3-(difluoromethyl)-2-fluorophenyl)ethyl)-4-fluoro-2-((1-methylpiperidin-4-yl)amino)-5-(morpholine-4-carbonyl)benzamide]"
4,0.23 µM,"COC(=O)c1ccc(NC2CCN(C)CC2)c(C(=O)N[C@H](C)c2cccc(C(F)F)c2F)c1 [Example 78, methyl (R)-3-((1-(3-(difluoromethyl)-2-fluorophenyl)ethyl)carbamoyl)-4-((1-methylpiperidin-4-yl)amino)benzoate]"
5,0.0391 µM,"C[C@@H](NC(=O)c1cc(N2CCOCC2)c(C(F)F)cc1NC1CCN(C)CC1)c1cccc(C(F)F)c1F [Example 79, (R)-4-(difluoromethyl)-N-(1-(3-(difluoromethyl)-2-fluorophenyl)ethyl)-2-((1-methylpiperidin-4-yl)amino)-5-morpholinobenzamide]"
